Experiments:
SARS-CoV-2 [1] = assay: K18-hACE2 mice infected with SARS-CoV-2 (wild type), lung viral titer and viral protein; format: in vivo
IL-6, IL-10 = format: cell-based, human
IFN-β, IFN-λ = format: cell-based, human; details: infected Calu3, 48 hpi, Mito-MES 100-1000 nM; methanesulfonate
Vero cells = assay: XTT cell cytotoxicity assay in uninfected Vero cells; format: cell-based, African green monkey; details: uninfected cultures, 10-1000 nM
Experimental: To measure cell viability to determine if there was any treatment-induced cytotoxicity, cells were plated and treated with drugs as described above. Cells were exposed to the same dilution series created for the in vitro efficacy studies. As above, vehicle-treated cells served as the 0% cytotoxicity control. After 24 h, cell viability was measured on a Synergy 2 Biotek microplate reader (Biotek Inc) via the XTT Cell Proliferation Assay Kit (ATCC® 30-1011K™) according to the manufacturer's protocol. Similar data were obtained in three independent experiments.

[2] = system: mitochondrial reactive oxygen species (mito-ROS); assay: Mitochondrial reactive oxygen species (MitoSOX Red) and ROS content in Calu3 cells; details: 1000 nM Mito-MES; methanesulfonate
Experimental: Flow cytometry was used to determine the cellular content of Calu3 cells for mitochondrial reactive oxygen species (mito-ROS) based on the median fluorescence intensity (MFI) of the fluorochrome MitoSOX Red and was compared to a negative cell population (fluorescence minus one negative control for staining) (ΔMFI). Flow cytometry was used to determine the percent of SARS-CoV-2 infected Calu3 cells positive for MitoSOX Red. Calu3 and Vero cells were treated with DMSO vehicle control (Ctrl) or the mitochondrial antioxidants MitoTEMPO (25-1000 nM) (72 h) or Mito-MES (25-1000 nM) (72 h) and were infected with a fluorescent mNeonGreen SARS-CoV-2 (icSARS-CoV-2-mNG) (MOI 0.3) (48 h). Immunofluorescent analysis of viral replication and cellular oxidative stress was performed at 48 hpi. […] Viral replication was determined by TCID50-assay (FIG. 3-d), cell cytotoxicity was assessed by the XTT assay in uninfected cells treated with dTPP (0.01-10 μM) (72 h) (FIG. 3-e). […]
After 24 h (or 48 h, experiments involving 4F) post-infection, cells were collected and stained with 5 μM MitoSOX Red Mitochondrial reactive oxygen species (mito-ROS) indicator for 30 min at 37° C. […] Cells were then analyzed using an LSR Fortessa flow cytometer and FACSDiva software (Becton & Dickinson, San Diego, Calif., USA), and data were analyzed using FlowJo software.

SARS-CoV-2 [3] = assay: SARS-CoV-2 replication in HEK293T-hACE2 cells, flow cytometry; format: cell-based; details: 100 nM Mito-MES; methanesulfonate
SARS-CoV-2 [4] = assay: Post-exposure prophylaxis in two parents of a household exposed to SARS-CoV-2; format: in vivo, human
From the text: FIG. 8-a show the timeline of exposure, symptoms and diagnostic tests in household. Two parents [[…], A1 with history of chronic myelogenous leukemia (CML) and healthy parent 39 years, A2] were notified on Dec. 5, 2020 [defined as day 5 (D5)], that the schoolteacher (T1) of their child (C1) tested positive for SARS-CoV-2 and developed symptoms of Covid-19. C1 had 6-h exposure to T1 on November 30 (with masks) (D0). The family had no other exposure to any other person between November 20-30 (D-10 to D0) given Thanksgiving Day on November 26 (D-4). Several children and parents from the same school class were infected with Covid-19 within the first 2 weeks of December. C1 developed fever (100.4° F.; 38° C.) and fatigue 2.5 days after exposure (D0) that lasted 3 days (D2-D5) and remained asymptomatic since then. The second child (C2) was asymptomatic until D12 when they developed fever (100.4° F.; 38° C.), fatigue and coryza on D12-D14. A1 and A2 started Mito-MES on D4. […]
One important consideration with COVID-19 testing is that it is often unclear how exactly the NP swab was obtained (by healthcare worker or not and whether the posterior or anterior nasopharynx were assessed). […]

Structure (SMILES): COC1=C(OC)C(=O)C(CCCCCCCCCC[P+](c2ccccc2)(c2ccccc2)c2ccccc2)=C(C)C1=O.CS(=O)(=O)[O-] [Mito-MES, 10-(4,5-dimethoxy-2-methyl-3,6-dioxo-1,4-cyclohexadienyl) decyl triphenylphosphonium methanesulfonate]
- reduction in SARS-CoV-2 viral titers in the lungs relative to vehicle (SARS-CoV-2 [1]; 4 mg/kg i.p. from 24 hours before infection, once per day): ~2 log units
- reduction in SARS-CoV-2 viral titers in the lungs relative to vehicle (SARS-CoV-2 [1]; 4 mg/kg, 8 hours after infection): 1.5 log units
- SARS-CoV-2 N protein among lung cell subtypes, flow cytometry (SARS-CoV-2 [1]; 3 dpi): had anti-SARS-CoV-2 activity in EPCAM(+) lung epithelial cells
- viral titers compared to controls (vehicle) (SARS-CoV-2 [1]; K18-hACE2 mice, 4 mg/kg per day intraperitoneally, 72 hpi): viral titers were lower
- reduction of the replication of SARS-CoV-2 (SARS-CoV-2 [1]; K18-hACE2 mice, overall): at least 2 orders of magnitude
- secretion / release of IL-6 (IL-6, IL-10): attenuated SARS-CoV-2-induced increase in secretion of IL-6
- secretion of IL-10 (IL-6, IL-10): reduced secretion of IL-10
- secreted and cellular IFN-β and IFN-λ (IFN-β, IFN-λ): did not impact increase in secreted and cellular IFN-β
- cytotoxicity, XTT cell cytotoxicity assay (Vero cells): no observed cytotoxicity
- ROS content of Calu3 cells [2]: increased the ROS content of Calu3 cells
- percent of SARS-CoV-2 infected HEK293T-hACE2 cells, flow cytometry (SARS-CoV-2 [3]): significantly reduced the percent of SARS-CoV-2 infected human non-cancerous HEK293T epithelial cells
- plasma IgG to SARS-CoV-2 S1 protein (SARS-CoV-2 [4]; each parent, three timepoints over 5 weeks): undetectable levels
- symptoms and virological / serological confirmation of infection (SARS-CoV-2 [4]; two parents, 20 mg/day oral Mito-MES from D4, 6 weeks): remained asymptomatic and without virological and serological confirmation of infection
